The source of these data is ChEMBL document CHEMBL5390209, “Spinosyn A and Its Derivative Inhibit Colorectal Cancer Cell Growth via the EGFR Pathway” (J Nat Prod, 2023).

In series [1] the test system is HT-29. Briefly: Inhibition of colony formation in human HT-29 cells at 0.75 uM incubated for 14 days by crystal violet staining based colony formation assay. The settings on record: time 14.0 day. In kind it is functional, cell-based.
The test system of series [2] is HCT-116. Briefly: Inhibition of colony formation in human HCT-116 cells at 0.75 uM incubated for 14 days by crystal violet staining based colony formation assay. The format is functional, cell-based. The note with it: time 14.0 day.
Series [3] deals with LoVo. Briefly: Inhibition of colony formation in human LoVo cells at 0.75 uM incubated for 14 days by crystal violet staining based colony formation assay. In kind it is functional, cell-based. The settings on record: time 14.0 day.
Series [4] deals with DLD-1. Put plainly: Inhibition of colony formation in human DLD-1 cells at 0.75 uM incubated for 14 days by crystal violet staining based colony formation assay. In kind it is functional, cell-based. The note with it: time 14.0 day.
Series [5] has as its system HT-29. Briefly: Antitumor activity against human HT-29 cells xenografted Balb/c mouse assessed as inhibited tumor growth at 2.5 mg/kg/day, ip administrated for every other day and measured after 6 days. The format is functional, organism-based. The settings on record: time 6.0 day. (A xenograft is tissue or cells of one species grown in another, often human tumour cells in immunodeficient mice.)

Series [6] is described as follows: Toxicity in human HT-29 cells xenografted Balb/c mouse assessed as change in body weight at 2.5 mg/kg/day, ip administrated for every other day and measured after 6 days. The format is organism-based. The note with it: in vivo, 144 h, time 6 day.
Series [7] is described as follows: Toxicity in human HT-29 cells xenografted Balb/c mouse assessed as change in spleen pathology at 2.5 mg/kg/day, ip administrated for every other day and measured after 28 days. In kind it is organism-based. The settings on record: in vivo, 672 h, time 28 day.
The nature of series [8]: Toxicity in human HT-29 cells xenografted Balb/c mouse assessed as change in lung pathology at 2.5 mg/kg/day, ip administrated for every other day and measured after 28 days. The format is organism-based. The note with it: in vivo, 672 h, time 28 day.
The subject of series [9] is SW480. Briefly: Inhibition of colony formation in double EGFR/HER2 knockdown human SW480 cells at 0.75 uM incubated for 14 days by crystal violet staining based colony formation assay. In kind it is functional, cell-based. The settings on record: time 14.0 day.
Series [10] has as its system HT-29. Briefly: Inhibition of HER2 in human HT-29 cells xenografted in BALB/c nude mouse assessed as HER2 protein level in tumor at 2.5 mg/kg/day, ip administrated for every other day and measured after 28 days by Western blotting analysis. In kind it is functional, organism-based. The note with it: time 28.0 day.
Series [11] concerns HT-29. Briefly: Inhibition of HER2 in human HT-29 cells xenografted in BALB/c nude mouse assessed as reduction in HER2 protein expression level at 2.5 mg/kg/day, ip administrated for every other day and measured after 28 days by immunohistochemistry staining based analysis. The format is functional, organism-based. The settings on record: time 28.0 day.
Series [12] addresses Epidermal growth factor receptor (Homo sapiens) (UniProt P00533). Put plainly: Inhibition of EGFR in human HT-29 cells at 2 uM by Western blot analysis. In kind it is cell-based. The note with it: time 3-15 hrs, TDE = time-dependent effect. (In general: A western blot detects proteins with antibodies after separation by electrophoresis.)
Series [13] shares this target. Briefly: Inhibition of EGFR in human HT-29 cells assessed as reduction in STAT3 phosphorylation level at 2 uM by Western blotting analysis. In kind it is cell-based. The settings on record: time 3-15 hrs, TDE = time-dependent effect.
The target is the same in series [14]. Briefly: Inhibition of EGFR in human HT-29 cells assessed as reduction in MEK1/2 phosphorylation level at 0.5 to 2 uM incubated for 24 hrs by Western blotting analysis. In kind it is cell-based. The note with it: dose 0.5-2 µM.
Series [15] has the same target. Briefly: Inhibition of EGFR in human HT-29 cells assessed as reduction in STAT3 phosphorylation level at 0.5 to 2 uM incubated for 24 hrs by Western blot analysis. The format is cell-based. The settings on record: dose 0.5-2 µM.
Series [16] has the same target. Put plainly: Inhibition of EGFR in human SW480 cells assessed as reduction in Erk1/2 phosphorylation level at 0.5 to 2 uM incubated for 24 hrs by Western blotting analysis. The settings on record: dose 0.5-2 µM. The format is cell-based.
For series [17], the system named is HT-29. Briefly: Inhibition of colony formation in human HT-29 cells at 6 uM incubated for 14 days by crystal violet staining based colony formation assay. The format is functional, cell-based. The note with it: time 14.0 day.
For series [18], the system named is LoVo. Briefly: Inhibition of colony formation in human LoVo cells at 6 uM incubated for 14 days by crystal violet staining based colony formation assay. The format is functional, cell-based. The note with it: time 14.0 day.
For series [19], the system named is DLD-1. Briefly: Inhibition of colony formation in human DLD-1 cells at 6 uM incubated for 14 days by crystal violet staining based colony formation assay. In kind it is functional, cell-based. The settings on record: time 14.0 day.
The test system of series [20] is HT-29. Briefly: Antitumor activity against human HT-29 cells xenografted Balb/c mouse assessed as inhibited tumor growth at 5 mg/kg/day, ip administrated for every other day and measured after 6 days. In kind it is functional, organism-based. The note with it: time 6.0 day.
Series [21] in a line: Toxicity in human HT-29 cells xenografted Balb/c mouse assessed as change in body weight at 5 mg/kg/day, ip administrated for every other day and measured after 6 days. The format is organism-based. The settings on record: in vivo, 144 h, time 6 day.
The subject of series [22] is HT-29. Put plainly: Antitumor activity against human HT-29 cells xenografted Balb/c mouse assessed as reduction in Ki67 expression level at 5 mg/kg/day, ip administrated for every other day and measured after 28 days by immunohistochemistry staining method. The format is functional, organism-based. The note with it: time 28.0 day.
Series [23] is described as follows: Toxicity in human HT-29 cells xenografted Balb/c mouse assessed as change in heart pathology at 5 mg/kg/day, ip administrated for every other day and measured after 28 days. In kind it is organism-based. The note with it: in vivo, 672 h, time 28 day.
A short description of series [24]: Toxicity in human HT-29 cells xenografted Balb/c mouse assessed as change in spleen pathology at 5 mg/kg/day, ip administrated for every other day and measured after 28 days. The format is organism-based. The note with it: in vivo, 672 h, time 28 day.
Series [25] in a line: Toxicity in human HT-29 cells xenografted Balb/c mouse assessed as change in kidney pathology at 5 mg/kg/day, ip administrated for every other day and measured after 28 days. In kind it is organism-based. The settings on record: in vivo, 672 h, time 28 day.
Series [26] concerns SW480. Briefly: Inhibition of colony formation in EGFR knockdown human SW480 cells at 6 uM incubated for 14 days by crystal violet staining based colony formation assay. The format is functional, cell-based. The note with it: time 14.0 day.
Series [27] concerns SW480. Put plainly: Inhibition of colony formation in double EGFR/HER2 knockdown human SW480 cells at 6 uM incubated for 14 days by crystal violet staining based colony formation assay. In kind it is functional, cell-based. The note with it: time 14.0 day.
Series [28] concerns the target Epidermal growth factor receptor (Homo sapiens) (UniProt P00533). Put plainly: Inhibition of EGFR in human HT-29 cells assessed as reduction in STAT3 phosphorylation level at 3.75 to 15 uM incubated for 24 hrs by Western blot analysis. In kind it is cell-based. The note with it: dose 3.75-15 µM.
Series [29] shares this target. Briefly: Inhibition of EGFR in human SW480 cells assessed as reduction in MEK1/2 phosphorylation level at 3.75 to 15 uM incubated for 24 hrs by Western blot analysis. In kind it is cell-based. The settings on record: dose 3.75-15 µM.
For series [30] the target is unchanged. Put plainly: Inhibition of EGFR in human SW480 cells assessed as reduction in Erk1/2 phosphorylation level at 3.75 to 15 uM incubated for 24 hrs by Western blot analysis. The format is cell-based. The note with it: dose 3.75-15 µM.
Series [31] has the same target. Put plainly: Inhibition of EGFR in human SW480 cells assessed as reduction in STAT3 phosphorylation level at 3.75 to 15 uM incubated for 24 hrs by Western blot analysis. The format is cell-based. The note with it: dose 3.75-15 µM.
Series [32] deals with HT-29. Put plainly: Inhibition of EGFR in human HT-29 cells xenografted in BALB/c nude mouse assessed as reduction in EGFR protein expression level in tumor at 5 mg/kg/day, ip administrated for every other day and measured after 28 days by immunohistochemistry staining based analysis. The format is functional, organism-based. The note with it: time 28.0 day.
The subject of series [33] is HT-29. Put plainly: Inhibition of HER2 in human HT-29 cells xenografted in BALB/c nude mouse assessed as reduction in HER2 protein expression level at 5 mg/kg/day, ip administrated for every other day and measured after 28 days by immunohistochemistry staining based analysis. In kind it is functional, organism-based. The settings on record: time 28.0 day.
Series [34] deals with Receptor tyrosine-protein kinase erbB-2 (Homo sapiens) (UniProt P04626). Briefly: Inhibition of HER2 in human HT-29 cells at 15 uM by Western blot analysis. In kind it is cell-based. The settings on record: time 3-15 hrs, TDE = time-dependent effect.
Series [35] addresses Epidermal growth factor receptor (Homo sapiens) (UniProt P00533). Put plainly: Inhibition of EGFR in human HT-29 cells assessed as reduction in ratio of p-EGFR/EGFR level at 15 uM measured after 3 to 15 hrs by Western blotting analysis. In kind it is cell-based. The note with it: time 3-15 hrs.

Activity calls are given as the source filed them. The rule behind the calls is not given here.

Epidermal growth factor receptor (Homo sapiens), sequence (P00533 whole entry): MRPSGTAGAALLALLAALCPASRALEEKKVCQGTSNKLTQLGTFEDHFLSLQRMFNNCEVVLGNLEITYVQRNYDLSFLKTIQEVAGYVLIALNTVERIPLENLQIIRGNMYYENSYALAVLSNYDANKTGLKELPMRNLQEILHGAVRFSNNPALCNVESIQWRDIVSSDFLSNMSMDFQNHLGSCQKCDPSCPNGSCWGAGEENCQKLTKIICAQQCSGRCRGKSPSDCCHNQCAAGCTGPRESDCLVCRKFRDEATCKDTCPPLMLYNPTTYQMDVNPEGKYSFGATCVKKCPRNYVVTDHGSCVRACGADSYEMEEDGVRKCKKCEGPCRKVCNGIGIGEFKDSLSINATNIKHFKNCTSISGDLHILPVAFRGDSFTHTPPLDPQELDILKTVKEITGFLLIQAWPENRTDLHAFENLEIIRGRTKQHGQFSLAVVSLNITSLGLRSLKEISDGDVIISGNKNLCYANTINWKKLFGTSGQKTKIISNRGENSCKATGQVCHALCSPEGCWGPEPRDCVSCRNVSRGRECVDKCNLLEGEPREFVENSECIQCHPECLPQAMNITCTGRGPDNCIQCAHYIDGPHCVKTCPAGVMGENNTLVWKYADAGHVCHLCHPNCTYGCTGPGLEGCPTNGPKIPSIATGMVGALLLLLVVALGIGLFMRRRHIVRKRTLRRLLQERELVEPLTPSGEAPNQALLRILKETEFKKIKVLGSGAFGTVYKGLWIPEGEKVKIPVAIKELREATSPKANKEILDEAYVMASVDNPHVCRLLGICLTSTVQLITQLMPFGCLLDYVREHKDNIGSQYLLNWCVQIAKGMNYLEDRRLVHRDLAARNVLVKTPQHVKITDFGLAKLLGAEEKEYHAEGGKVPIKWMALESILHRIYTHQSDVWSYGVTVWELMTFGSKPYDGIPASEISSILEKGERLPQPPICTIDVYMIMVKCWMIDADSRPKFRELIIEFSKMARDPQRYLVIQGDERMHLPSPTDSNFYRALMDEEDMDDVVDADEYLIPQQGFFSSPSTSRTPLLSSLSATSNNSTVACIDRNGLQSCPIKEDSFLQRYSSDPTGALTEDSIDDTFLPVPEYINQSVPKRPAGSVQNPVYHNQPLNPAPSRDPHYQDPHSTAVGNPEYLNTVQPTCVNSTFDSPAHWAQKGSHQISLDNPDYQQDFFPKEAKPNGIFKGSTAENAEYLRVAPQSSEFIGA
Receptor tyrosine-protein kinase erbB-2 (Homo sapiens), sequence (P04626 whole entry): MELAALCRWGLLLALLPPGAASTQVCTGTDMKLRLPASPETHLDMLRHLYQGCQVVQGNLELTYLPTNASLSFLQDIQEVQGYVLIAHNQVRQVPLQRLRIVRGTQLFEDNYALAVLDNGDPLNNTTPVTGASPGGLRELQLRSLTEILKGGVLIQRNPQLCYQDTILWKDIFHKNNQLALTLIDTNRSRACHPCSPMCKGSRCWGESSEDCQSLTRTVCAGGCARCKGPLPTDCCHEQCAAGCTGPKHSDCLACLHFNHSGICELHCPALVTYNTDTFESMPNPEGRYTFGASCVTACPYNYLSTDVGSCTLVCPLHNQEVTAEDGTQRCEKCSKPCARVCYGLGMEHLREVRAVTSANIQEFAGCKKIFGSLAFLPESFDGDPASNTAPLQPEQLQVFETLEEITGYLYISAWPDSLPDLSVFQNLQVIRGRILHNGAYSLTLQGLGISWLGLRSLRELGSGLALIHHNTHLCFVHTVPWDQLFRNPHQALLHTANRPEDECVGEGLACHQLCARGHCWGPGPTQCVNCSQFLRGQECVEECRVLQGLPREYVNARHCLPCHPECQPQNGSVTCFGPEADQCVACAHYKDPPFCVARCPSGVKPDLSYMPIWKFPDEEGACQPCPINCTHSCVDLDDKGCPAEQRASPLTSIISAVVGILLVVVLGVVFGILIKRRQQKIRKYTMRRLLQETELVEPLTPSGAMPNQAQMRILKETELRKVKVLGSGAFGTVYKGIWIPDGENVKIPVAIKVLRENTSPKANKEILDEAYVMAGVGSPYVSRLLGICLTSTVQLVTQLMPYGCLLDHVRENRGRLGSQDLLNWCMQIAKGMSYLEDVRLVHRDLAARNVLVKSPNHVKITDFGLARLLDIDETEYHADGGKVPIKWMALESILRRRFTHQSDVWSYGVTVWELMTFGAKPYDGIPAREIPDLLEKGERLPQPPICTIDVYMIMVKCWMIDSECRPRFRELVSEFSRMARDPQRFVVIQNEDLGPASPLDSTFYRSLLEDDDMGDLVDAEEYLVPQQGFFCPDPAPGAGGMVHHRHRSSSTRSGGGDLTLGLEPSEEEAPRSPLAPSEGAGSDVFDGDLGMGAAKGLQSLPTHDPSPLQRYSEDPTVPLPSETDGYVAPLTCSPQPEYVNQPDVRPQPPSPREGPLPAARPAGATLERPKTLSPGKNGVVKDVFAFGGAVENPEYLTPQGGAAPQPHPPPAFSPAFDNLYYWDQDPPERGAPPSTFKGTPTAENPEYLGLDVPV

Take `CC[C@H]1CCC[C@H](O[C@H]2CC[C@H](N(C)CC(O)CN3CCNCC3)[C@@H](C)O2)[C@@H](C)C(=O)C2=C[C@@H]3[C@@H](C=C[C@@H]4C[C@@H](O[C@@H]5O[C@@H](C)[C@H](OC)[C@@H](OC)[C@H]5OC)C[C@@H]34)[C@@H]2CC(=O)O1` (stereo not given in full): the inhibition entry in [1], in series [2], in series [3], in series [4], in [5] and in series [10] was “Active” in each case. The inhibition result in [11], in series [14], in series [15] and in [16] was “Active” each time. Further, the Activity result in series [6], in [7] and in [8] was “Non-Toxic” each time. Further, the result in series [9] was inactive. Further, the inhibition result in series [12] and in series [13] was “Tde” throughout.
Consider `CC[C@H]1CCC[C@H](O[C@H]2CC[C@H](N(C)C)[C@@H](C)O2)[C@@H](C)C(=O)C2=C[C@@H]3[C@@H](C=C[C@@H]4C[C@@H](O[C@@H]5O[C@@H](C)[C@H](OC)[C@@H](OC)[C@H]5OC)C[C@@H]34)[C@@H]2CC(=O)O1` [SPINOSYN A], for which the inhibition entry in [17], in series [18], in [19], in series [20], in [28] and in series [29] was “Active” throughout. Besides, the inhibition result in [30], in [31], in series [32], in [33] and in series [35] was “Active” each time. Also, the Activity entry in [21], in series [23], in series [24] and in [25] was “Non-Toxic” in each case. For the same compound, the result in [22] and in [26] was Active. For the same compound, the outcome in [27] was inactive. The inhibition entry in series [34] was “Tde”.
